Assay results: patent publication EP1149092B1, “4- AND 5-ALKYNYLOXINDOLES AND 4- AND 5-ALKENYLOXINDOLES” (F. HOFFMANN-LA ROCHE AG, priority 1998, dated 2000)

Key:
MMP-3 = assay: MG-63 Cell-Based Assay, MMP-3 release after IL-1β stimulation (ELISA); details: Homo sapiens, MG63 cells, IL-1β stimulated, 24 hours with compound, read-out: IC50 (µM) in MG63 Cells MMP3
From the text: (§1) The MG63 cell line, a human osteosarcoma cell line, was purchased from American Type Culture Collection (ATCC; Rockville, MD) and grown in the medium recommended by ATCC. When stimulated with human IL-1β , MG63 cells release matrix metalloproteinase 3 (MMP-3), an AP-1 dependent inflammatory mediator and IL-6, a NF-κB-dependent mediator. In this assay the ability of a test compound to block MMP-3 expression and not block IL-6 expression is an indication that the compound is a selective inhibitor of the AP-1 transcription pathway.
(§2) On day 1 the cells were plated at 2.5X10^4 cells/well in 96 well plates. After 24 hours, dexamethasone (the assay control) (Sigma, St. Louis, MO) and the test compounds were diluted to appropriate concentrations and added to the MG63 cells. The cells were incubated with the compounds for 24 hours after which the supernatants were removed and analyzed by ELISA.
(§3) In the ELISA, 96 well plates were coated with antibody to MMP-3 or IL-6. Supernatants were added to the coated plates and any antigen (MMP-3 or IL-6) in the supernatant bound to the antibody coated on the plates. The plates were then washed with PBS containing 0.05% Tween 20 (Sigma, St. Louis, MO) and the biotinylated secondary antibody was added. This secondary antibody binds to the already bound antigen creating a "sandwich effect". Plates were washed as described above and horseradish peroxidase (HRP)-streptavidin conjugate (Sigma, St. Louis, MO) was added to the plates. HRP-streptavidin bound to the biotin-antibody conjugate. The plates were washed and TMB substrate (Kirkegaard and Perry Labs, Gaithersburg, MD) was added to the wells. This substrate changes color in the presence of HRP-streptavidin. The intensity of the color (measured at 450 nm) is proportional to the amount of MMP-3 or IL-6 produced by the MG63 cells upon exposure to IL-1β and the test compounds. Optical density values were converted to concentration (pg/ml or Units/ml) based on a standard curve included in the assay. IC50 values for each test compound were determined from the linear regression of a plot of the logarithm of the concentration of compound versus amount of MMP-3 or IL-6 secreted. (The MMP-3 antibodies were prepared in-house using standard hybridoma technology and the IL-6 antibodies were obtained from either Genzyme, Cambridge, MA or Pharmingen, San Diego, CA.).

IL-6 [1] = assay: MG-63 Cell-Based Assay, IL-6 release after IL-1β stimulation (ELISA); details: Homo sapiens, MG63 cells, IL-1β stimulated, 24 hours with compound, read-out: IC50 (µM) in MG63 Cells IL6
From the text: as §1, §2, §3

rat SAPK (isoform β) = rat SAPK (isoform β) (Rattus norvegicus, UniProt P49187); assay: SAPK FlashPlate Assay (inhibition of cJun phosphorylation); assay type: biochemical; details: GST-cJun substrate, 30 minutes at 37 °C
Sequence of rat SAPK (isoform β) (P49187 whole entry, canonical isoform): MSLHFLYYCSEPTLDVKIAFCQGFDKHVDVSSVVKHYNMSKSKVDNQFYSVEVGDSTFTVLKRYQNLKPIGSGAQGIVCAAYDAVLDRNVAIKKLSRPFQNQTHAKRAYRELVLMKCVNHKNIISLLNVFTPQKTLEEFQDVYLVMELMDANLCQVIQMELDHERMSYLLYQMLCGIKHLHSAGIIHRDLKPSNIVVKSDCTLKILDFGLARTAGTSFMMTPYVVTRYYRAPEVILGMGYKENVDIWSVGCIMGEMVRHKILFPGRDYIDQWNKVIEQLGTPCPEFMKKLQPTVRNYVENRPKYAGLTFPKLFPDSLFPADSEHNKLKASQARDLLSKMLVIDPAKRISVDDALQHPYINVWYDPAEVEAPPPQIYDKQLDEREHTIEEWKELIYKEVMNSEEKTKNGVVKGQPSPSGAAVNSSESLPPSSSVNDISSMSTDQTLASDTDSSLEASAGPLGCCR
Procedure: "IC50" refers to the concentration of a particular 4- or 5-alkynyloxindole or 4-or 5-alkenyloxindole required to inhibit 50% of cJun phosphorylation, which is a measure of inhibition of SAPK activity. IC50 can be measured, inter alia, using the assay described herein in Example 102.
Human JNK is highly homologous to rat SAPK. To measure the inhibitory activity of test compounds, the compounds were tested in the rat SAPK assay.
For the SAPK assay, purified GST-cJun (a chimeric protein containing cJun, a natural substrate of JNK) was coated on 96 well FlashPlates (New England Nuclear, Boston, MA). Purified rat SAPK (isoform β, Kyriakis et al. supra) was preincubated with preparations containing MEKK-1 and MKK4 for 30 minutes at 37 °C in assay buffer containing 25 mM HEPES, pH 7.5, 150 mM NaCl, 20 mM MgCl2, 2 mM DTT, 0.001% Tween 20, 1 µM ATP freshly added. In the preincubation step, MEKK-1 phosphorylates and activates MKK-4, which in tum phosphorylates and activates SAPK. The activated SAPK was then added to the cJun coated FlashPlates along with ^33P-ATP (0.32 µCi per reaction) and test compounds. The plates were incubated for 30 minutes at 37 °C, then washed with PBS, 0.01% Tween 20, and counted in the Topcount scintillation counter (Packard Instrument Co., Downers Grove, IL). Dilutions of compounds were tested in duplicate in each assay. The percent inhibition of cJun phosphorylation (a measure of inhibition of SAPK activity) was determined by the following formula: [formula] where "test compound" refers to the average counts per minute of the test duplicates, "nonspecific" refers to the average counts per minute when no SAPK was added, and "total" refers to the average counts per minute when no compound was added.

IL-6 [2] = assay: U937 Cell-Based Assay, IL-6 release after LPS stimulation (ELISA); details: Homo sapiens, U-937; U937 cells, PMA then LPS stimulated, 24 hours; read-out: IC50 (µM) in U937 Cells IL6
Procedure: (§4) The U937 cells, a human monocyte/macrophage cell line, was obtained from the ATTC and grown in the recommended medium. These cells when stimulated with lipopolysaccharide (LPS) release TNF, another inflammatory mediator implicated in the JNK pathway (Swantek et al., supra) and IL-6. In this assay the ability of a test compound to block TNF expression is evaluated.
(§5) The assay is very similar to the MG63 cell based assay except for the following modifications. The U937 cells were suspension cells but when stimulated with phorbol myristate acetate (PMA) (Sigma, St. Louis, MO) they become adherent. After PMA stimulation the cells were washed in cell culture medium and plated at 1X10^5 cells/well in 96 well plates. The following day the test compounds and dexamethasone control (Sigma, St. Louis, MO) were added to the cells for 1 hour of preincubation. Then the cells were stimulated with LPS (Sigma, St. Louis, MO). After an additional 24 hours of incubation the supematants were removed and assayed for TNF-α and IL-6 by ELISA. The IL-6 ELISA was run as described previously for the MG63 assay. The TNF ELISA was run using a kit supplied by Genzyme (Cambridge, MA).

TNF = assay: U937 Cell-Based Assay, TNF release after LPS stimulation (ELISA); details: Homo sapiens, U-937; U937 cells, PMA then LPS stimulated, 24 hours
Procedure: as §4, §5

`C#CC(O)c1ccc(OC)c(O)c1` (stereo not drawn) [GG, 3-Hydroxy-3-(3-hydroxy-4-methoxyphenyl)-1-propyne] was tested, and the IC50 (MMP-3) was less than 12.5 µM and the IC50 (IL-6 [1]) was less than 20 µM.

`COc1cc[nH]c1/C=C1\C(=O)Nc2cccc(C#CC(O)c3cccc(OC)c3OC)c21` (racemic) [EE, rac-(Z)-1,3-Dihydro-4-[3-(2,3-dimethoxyphenyl)-3-hydroxy-1-propynyl]-3-[(3-methoxy-1H-pyrrol-2-yl)methylene]-2H-indol-2-one] was tested, and the IC50 (MMP-3) was less than 12.5 µM, the IC50 (IL-6 [1]) was less than 20 µM and the IC50 (rat SAPK (isoform β)) was less than 1 µM.

In the case of `COc1ccc(C#Cc2cccc3c2/C(=C/c2[nH]ccc2OC)C(=O)N3)cc1` [G, (Z)-1,3-Dihydro-4-[(4-methoxyphenyl)ethynyl]-3-[(3-methoxy-1H-pyrrol-2-yl)methylene]-2H-indol-2-one], the IC50 (MMP-3) is reported as less than 12.5 µM, the IC50 (IL-6 [1]) is reported as less than 20 µM and the IC50 (rat SAPK (isoform β)) is reported as less than 1 µM.

`COc1cc(C(O)C#Cc2cccc3c2/C(=C/c2[nH]ccc2OC)C(=O)N3)ccc1O` (racemic) [O, rac-(Z)-1,3-Dihydro-4-[3-hydroxy-3-(4-hydroxy-3-methoxyphenyl)-1-propynyl]-3-[(3-methoxy-1H-pyrrol-2-yl)methylene]-2H-indol-2-one] was tested, and the IC50 (MMP-3) was less than 12.5 µM, the IC50 (IL-6 [2]) was less than 20 µM and the IC50 (TNF) was less than 8 µM. The IC50 (IL-6 [1]) was less than 20 µM.

Work on `COc1ccc(/C=C/c2cccc3c2/C(=C/c2[nH]ccc2OC)C(=O)N3)cc1OC` [QQQ, 1,3-Dihydro-4-[(E)-2-(3,4-dimethoxyphenyl)-ethenyl]-(Z)-3-[(3-methoxy-1H-pyrrol-2-yl)methylene]-2H-indol-2-one] yielded an IC50 (MMP-3) of less than 12.5 µM, an IC50 (IL-6 [1]) of 20 µM and an IC50 (rat SAPK (isoform β)) of less than 1 µM.

`COc1cc[nH]c1/C=C1\C(=O)Nc2cccc(C#CCOc3ccccc3)c21` [Y, (Z)-1,3-Dihydro-3-[(3-methoxy-1H-pyrrol-2-yl)methylene]-4-(3-phenoxy-1-propynyl)-2H-indol-2-one] showed an IC50 (MMP-3) of less than 12.5 µM, an IC50 (IL-6 [1]) of less than 20 µM and an IC50 (rat SAPK (isoform β)) of less than 1 µM.

`COc1ccc(C(O)C#Cc2cccc3c2/C(=C/c2[nH]ccc2OC)C(=O)N3)cc1` (racemic) [H, rac-(Z)-1,3-Dihydro-4-[3-hydroxy-3-(4-methoxyphenyl)-1-propynyl]-3-[(3-methoxy-1H-pyrrol-2-yl)methylene]-2H-indol-2-one] showed an IC50 (MMP-3) of less than 12.5 µM, an IC50 (IL-6 [1]) of less than 20 µM and an IC50 (rat SAPK (isoform β)) of less than 1 µM.

For `COc1cc[nH]c1/C=C1\C(=O)Nc2cccc(C#CC(O)c3ccc4c(c3)OCO4)c21` (racemic) [N, rac-(Z)-4-[3-(1,3-benzodioxol-5-yl)-3-hydroxy-1-propynyl]-1,3-dihydro-3-[(3-methoxy-1H-pyrrol-2-yl)methylene]-2H-indol-2-one], the IC50 (MMP-3) was less than 12.5 µM, the IC50 (IL-6 [2]) was less than 20 µM and the IC50 (TNF) was less than 8 µM. For the same molecule, the IC50 (IL-6 [1]) was less than 20 µM and the IC50 (rat SAPK (isoform β)) was less than 1 µM.

With `C#CC(O)c1cccn1C` (stereo not drawn) [Z, 3-Hydroxy-3-(1-methyl-pyrrol-2-yl)-1-propyne] the IC50 (MMP-3) was less than 12.5 µM and the IC50 (IL-6 [1]) was less than 20 µM.

With `COc1cc[nH]c1/C=C1\C(=O)Nc2cccc(C#Cc3cccnc3)c21` [CCC, (Z)-1,3-Dihydro-3-[(3-methoxy-1H-pyrrol-2-yl)methylene]-4-[(3-pyridinyl)ethynyl]-2H-indol-2-one] the IC50 (MMP-3) was less than 12.5 µM, the IC50 (IL-6 [1]) was greater than 20 µM and the IC50 (rat SAPK (isoform β)) was less than 1 µM.

Work on `COc1cc[nH]c1/C=C1\C(=O)Nc2cccc(C#CC(O)c3ccc(N(C)C)cc3)c21` (racemic) [R, rac-(Z)-1,3-Dihydro-4-[3-(4-dimethylaminophenyl)-3-hydroxy-1-propynyl]-3-[(3-methoxy-1H-pyrrol-2-yl)methylene]-2H-indol-2-one] yielded an IC50 (MMP-3) of less than 12.5 µM, an IC50 (IL-6 [2]) of 20 µM and an IC50 (TNF) of less than 8 µM. The IC50 (IL-6 [1]) was less than 20 µM and the IC50 (rat SAPK (isoform β)) was less than 1 µM.

For `COc1cc[nH]c1/C=C1\C(=O)Nc2cccc(C#Cc3ccccc3)c21` [D, (Z)-1,3-Dihydro-4-(phenylethynyl)-3-[(3-methoxy-1H-pyrrol-2-yl)methylene]-2H-indol-2-one], the IC50 (MMP-3) was less than 12.5 µM, the IC50 (IL-6 [1]) was 20 µM and the IC50 (rat SAPK (isoform β)) was less than 1 µM.

`COc1cc[nH]c1/C=C1\C(=O)Nc2ccc(NC(=O)Cc3cccs3)c(C#Cc3cccnc3)c21` [III, (Z)-N-[2,3-Dihydro-3-[(3-methoxy-1H-pyrrol-2-yl)methylene]-2-oxo-4-[(3-pyridinyl)ethynyl]-1H-indol-5-yl]-2-thiopheneacetamide] was tested, and the IC50 (MMP-3) was less than 12.5 µM and the IC50 (IL-6 [1]) was 20 µM.

`COc1cc[nH]c1/C=C1\C(=O)Nc2cccc(C#CC(O)c3ccsc3)c21` (racemic) [BB, rac-(Z)-1,3-Dihydro-4-[3-hydroxy-3-(thiophen-3-yl)-1-propynyl]-3-[(3-methoxy-1H-pyrrol-2-yl)methylene]-2H-indol-2-one] was tested, and the IC50 (MMP-3) was less than 12.5 µM, the IC50 (IL-6 [2]) was less than 20 µM and the IC50 (TNF) was less than 8 µM. It also gave an IC50 (IL-6 [1]) of less than 20 µM and an IC50 (rat SAPK (isoform β)) of less than 1 µM.

In the case of `C#CC(O)c1ccc(O)cc1` (stereo not drawn) [P, 3-Hydroxy-3-(4-hydroxyphenyl)-1-propyne], the IC50 (MMP-3) is reported as less than 12.5 µM and the IC50 (IL-6 [1]) is reported as less than 20 µM.

Work on `COc1cc[nH]c1/C=C1\C(=O)Nc2cccc(C#CC(O)c3ccccc3)c21` (racemic) [FFF, rac-(Z)-1,3-Dihydro-4-(3-hydroxy-3-phenyl-1-propynyl)-3-[(3-methoxy-1H-pyrrol-2-yl)methylene]-2H-indol-2-one] yielded an IC50 (MMP-3) of less than 12.5 µM, an IC50 (IL-6 [1]) of less than 20 µM and an IC50 (rat SAPK (isoform β)) of less than 1 µM.
